The target of one experiment is T1, DinF-BH (Halalkalibacterium halodurans (Bacillus halodurans), UniProt Q9KAX3).
T1 sequence (Q9KAX3 1-464): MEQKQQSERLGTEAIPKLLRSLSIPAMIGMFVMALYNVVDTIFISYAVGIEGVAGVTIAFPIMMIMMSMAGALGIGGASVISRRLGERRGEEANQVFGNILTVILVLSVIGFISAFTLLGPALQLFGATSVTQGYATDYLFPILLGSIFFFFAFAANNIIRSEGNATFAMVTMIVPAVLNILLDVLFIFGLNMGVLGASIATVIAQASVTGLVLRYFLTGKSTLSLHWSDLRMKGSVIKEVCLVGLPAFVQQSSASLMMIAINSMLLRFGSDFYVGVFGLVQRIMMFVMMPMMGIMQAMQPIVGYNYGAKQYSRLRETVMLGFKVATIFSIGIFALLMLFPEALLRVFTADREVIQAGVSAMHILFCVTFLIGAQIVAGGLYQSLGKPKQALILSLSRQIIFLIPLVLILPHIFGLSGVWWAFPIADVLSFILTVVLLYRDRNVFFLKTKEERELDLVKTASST
Briefly: biochemical. The protocol: (§1) [^3H]-R6G (2.7 Ci mmol^−1, 1.0 mCi ml^−1) was custom-synthesized by Moravek Biochemicals (Brea, California, USA). [^3H]-R6G binding assay was performed by using immobilized protein on Ni-NTA beads[31][42] as follows. Briefly, freshly purified protein (DinF-BH or NorM-NG) was mixed gently with pre-equilibrated Ni-NTA beads at 1 mg ml^−1 in buffers containing 20 mM Tris-HCl pH 8, 50 mM NaCl, 20% (v/v) glycerol, 0.02% (w/v) DDM, 1 mM TCEP (binding buffer) for >1 h at 4 °C. The mixture was centrifuged and the unbound material (supernatant) was discarded.
(§2) The beads were thoroughly washed, resuspended and aliquoted in the binding buffer. […] The samples were then transferred into micro-columns and centrifuged; the unbound material (flow-through) was discarded. The protein was eluted by using the binding buffer supplemented with 500 mM Imidazole. The radioactivity of the eluate was measured by liquid scintillation. […] All the experiments were performed in duplicate and repeated three times.

The target in the next experiment is NorM-NG (Neisseria gonorrhoeae, UniProt Q5F9J8). Put plainly: biochemical. In kind it is binding. The protocol: as §1, §2
NorM-NG, sequence (Q5F9J8 entry or part of it): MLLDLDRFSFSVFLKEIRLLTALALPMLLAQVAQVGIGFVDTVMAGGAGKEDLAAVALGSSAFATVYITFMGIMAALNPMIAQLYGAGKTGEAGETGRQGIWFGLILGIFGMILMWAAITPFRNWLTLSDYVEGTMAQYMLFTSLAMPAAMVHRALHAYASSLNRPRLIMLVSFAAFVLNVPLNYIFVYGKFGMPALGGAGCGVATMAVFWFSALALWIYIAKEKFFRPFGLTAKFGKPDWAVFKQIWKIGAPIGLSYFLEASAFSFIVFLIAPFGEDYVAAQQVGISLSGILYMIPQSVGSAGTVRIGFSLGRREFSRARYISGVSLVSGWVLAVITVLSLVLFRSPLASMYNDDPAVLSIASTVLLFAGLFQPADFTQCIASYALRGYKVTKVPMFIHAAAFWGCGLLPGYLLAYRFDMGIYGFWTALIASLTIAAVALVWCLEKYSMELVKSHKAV

Turning to `CC/N=c1\cc2oc3cc(NCC)c(C)cc3c(-c3ccccc3C(=O)OCC)c-2cc1C` [R6G, rhodamine 6G], on DinF-BH, the Kd is approximately 5 µM and the Ki is less than 10 µM. At NorM-NG, this molecule displayed a Kd of approximately 5 µM and a Ki of less than 10 µM.

`CC[n+]1c(-c2ccccc2)c2cc(N)ccc2c2ccc(N)cc21` [ethidium]: the Ki at DinF-BH and at NorM-NG was less than 25 µM in each case.

(Values after paper PMC4866600, “Structural basis for the blockade of MATE multidrug efflux pumps” (Nature Communications, 2015).)
